Data taken from patent US20260315497A1, “COMPOSITION FOR TREATING EPILEPSY” (CanaQuest Medical Corp., priority 2022, published 2026).

What was measured:
Assay type in all cases: in vivo, Male, CF-1 male mice
[1] = Toxicity Assessment: ataxia, Loscher scale, Further Tests
Text: (§1) Subjects Male, CF-1 male mice (18-25 grams) were used as subjects. They were housed under standard conditions in a vivarium at the University of Toronto (CCBR). They were given 2 days (minimum) to acclimate before testing began.
(§2) Drugs and Doses CBD was provided in the form of: 1) standard CBD isolate, 2) CBD in DHA/EPA without emulsification (2% DHA, 2% EPA, 12% “stabilizer”), 3) CBD emulsified in DHA/EPA to produce larger particles (66.2 nm diameter) and 4) CBD emulsified in DHA/EPA to produce smaller particles (32.7 nm diameter). Drugs were injected intraperitoneally at a constant volume, and were diluted as necessary using a vehicle of 1:1:18 (Cremophor:alcohol:saline). Dilution is necessary to achieve volumes large enough for injection. Doses of CBD ranged from 0 (vehicle) to 400 mg/kg. As in our past studies, the MES stimulus was given 2 hours after injection. Dose-response curves were done for each formulation.
(§3) Toxicity Assessment Ataxia (impaired movement) was assessed using the Loscher scale and was done just before the MES test. Loscher scores of 2-5 were scored a “toxicity present”. […]
The Litchfield/Wilcoxon method could not be applied to the toxicity data for technical reasons, so TD50s were calculated from line plots.

[2] = MES test in mice, Further Tests; details: Mus musculus, ip, MES 50 mA, 60 Hz, 0.2 sec, i.p., 2 hours after injection, Litchfield and Wilcoxon method, read-out: ED50 (effective dose to protect 50% of mice)
Text: as §1, §2
MES Procedure The MES stimulus consisted of 0.2 sec of 60 Hz since-wave current administered at an intensity of 50 mA via corneal electrodes. The percentage of mice protected against the tonic hindlimb extension component of the resulting seizure was measured. […]
as §3

[3] = Toxicity Assessment: ataxia, Loscher scale, Initial Tests; details: just before the MES test, i.p., standard CBD at any dose
Description: (§4) Subjects Male, CF-1 male mice (18-25 grams) were used as subjects. They were housed under standard conditions in the vivarium at the CCBR. They were given 2 days (minimum) to acclimate before testing began.
(§5) Drugs and Doses CBD was provided in pure form and in the described composition. Two four-point dose-response curves were done, one for the pure form CBD and one for the described composition. Ten mice were tested at each dose. (Mice were not re-used.) Compounds were injected intraperitoneally. Testing was done 2 hours after injection. Drugs were injected at a constant volume, and were diluted as necessary using a vehicle of 1:1:18 (Cremophor:alcohol:saline). Dilution is necessary to achieve volumes large enough for injection. Doses were: 0 (vehicle), 25, 50, 100, 200 mg/kg. A 400 mg/kg dose was added later to extend the standard CBD curve.
Toxicity Assessment Ataxia (impaired movement) was assessed using the Loscher scale and was done just before the MES test.

[4] = Maximal Electroshock Seizure (MES) Model in mice, Initial Tests; details: Mus musculus, ip, MES 50 mA, 60 Hz, 0.2 sec, i.p., 2 hours after injection, 10 mice per dose, read-out: ED50 (effective dose to protect 50% of mice)
Description: The composition was tested using the Maximal Electroshock Seizure (MES) Model. This is an established procedure to provide an indication of a compound's ability to prevent seizure spread.
as §4, §5
MES Procedure The MES stimulus consisted of 0.2 sec of 60 Hz since-wave current administered at an intensity of 50 mA via corneal electrodes. The percentage of mice protected against the tonic hindlimb extension component of the resulting seizure was measured. Mice were then euthanized following the procedure.

C=C(C)[C@@H]1CCC(C)=C[C@H]1c1c(O)cc(CCCCC)cc1O [regular CBD, cannabidiol] gave a TD25 ([1]; Loscher scores of 2-5 = toxicity present, i.p., highest dose tested) of 400 mg/kg, a TD50 at 2 h ([1]; mouse, in vivo, ip, speculated to be higher than the highest dose tested) greater than 400 mg/kg and an ED50 [2] of 146 mg/kg. For the same molecule, the signs of toxicity [3] was “No mice showed any signs of toxicity” and the ED50 [4] was 162 mg/kg.
